Measured values from PubChem BioAssay AID1996.
≈ marks a conversion by molar mass, not a printed value.

conditions: buffer; pH 7.4; 200.0 µM

| Structure (SMILES) | solubility kinetic [µg/mL] |
| --- | --- |
| O=[N+]([O-])c1cccc(NC(=S)N2CCCC2)c1 | > 37.7 |
| Cc1ccsc1C(=O)NC1CCCCC1C (stereo unspecified) | > 35.6 |
| O=C1NC(=S)N/C1=C\C=C\c1ccccc1 | 1.7 (≈ 7.38 µM) |
| CC(=O)NC(C(=O)c1ccccc1)N1CCCCC1 (stereo unspecified) | 29.1 (≈ 112 µM) |
| c1ccc(CNc2ncnc3scc(-c4cccs4)c23)nc1 | 37.2 (≈ 115 µM) |
| c1cncc(-c2nc(-c3ccc4c(c3)OCCO4)cs2)c1 | 4.6 (≈ 15.5 µM) |
| O=C(CO/N=C/c1ccc(OC(F)F)cc1)NC1CCCCC1 | 6.7 (≈ 20.5 µM) |
| c1ccc(-n2cccc2)c(N2CCCCC2)c1 | < 0.2 |
| CN(C)C(=O)CN1CCN(Cc2nc(CC3CC3)no2)CC1 | > 46.1 |
| CC(Sc1nc2c(c(=O)[nH]1)CCCC2)C(=O)Nc1ccccc1C#N (stereo unspecified) | 46.1 (≈ 130 µM) |
| CC(Oc1ccccc1F)C(=O)NC1CCS(=O)(=O)C1 (stereo unspecified) | > 45.2 |
| Cc1ccc(S(=O)(=O)NCCC(=O)NCc2cccnc2)cc1 | > 50 |
| CN1CCN(c2nc(-c3ccccc3)ncc2S(C)(=O)=O)CC1 | > 49.9 |
| CNc1ccc(S(=O)(=O)NC)cc1[N+](=O)[O-] | > 36.8 |
| CC(=O)Oc1ccc2occ(/C=N/c3cc(=O)[nH]c(=S)[nH]3)c(=O)c2c1 | > 53.6 |
| N#CC1(NC(=O)Cn2cc(C(F)(F)F)ccc2=O)CCCC1 | > 47 |
| NS(=O)(=O)c1ccc(CCNC(=O)COC(=O)C2COc3ccccc3O2)cc1 (stereo unspecified) | > 63.1 |
| COc1ccc(NC(=O)Nc2cc(C(C)(C)C)on2)cc1OC | > 47.9 |
| COC(=O)c1ccc(C(=O)OC)c(NC(=O)C(C)(C)C)c1 | 3.9 (≈ 13.3 µM) |
| O=C(NC(=S)N1CCN(C2CCCCC2)CC1)c1ccccc1 | > 49.7 |

| Structure (SMILES) | solubility kinetic [µg/mL] |
| --- | --- |
| CC1CCC(NC(=O)CSc2nncs2)CC1 (stereo unspecified) | > 40.7 |
| N#Cc1cccc(NC(=O)CN2CCCCCC2)c1 | > 38.6 |
| Cc1cc(S(=O)(=O)NCCCN2CCOCC2)c(Cl)cc1Cl | 42.6 (≈ 116 µM) |
| O=C(N/N=C/c1ccccc1Cl)C1CC1 | > 33.4 |
| O=C(CSc1nncs1)NC1CCCCCCC1 | > 42.8 |
| O=C(/C=C/NCc1cccnc1)c1ccc(Br)cc1 | > 47.6 |
| Cl.OC(CNCc1cccnc1)COc1ccc2ccccc2c1 (stereo unspecified) | 43.5 |
| CCOC(=O)/C(C#N)=C/C=C1\C=Cc2ccccc2N1CC | 0.7 (≈ 2.38 µM) |
| CCCNC(=O)COc1ncnc2sccc12 | > 37.7 |
| CCCN1CCN(S(=O)(=O)c2cn(C)nc2C)CC1 | > 43 |
| N#Cc1ccc(OCC(=O)NCC2COc3ccccc3O2)cc1 (stereo unspecified) | > 48.7 |
| Cc1ccccc1NC(=S)Nc1cccc2cnccc12 | 34.2 (≈ 117 µM) |
| COC(=O)C(CO)Nc1ncnc2onc(-c3ccc(F)cc3)c12 (stereo unspecified) | > 49.8 |
| CCOC(=O)NC(=O)CSc1ccc(S(=O)(=O)N2CCCCC2)cn1 | > 58.1 |
| COc1ccc(OCC(O)CNC2CCCC2)cc1.Cl (stereo unspecified) | 42.6 |
| O=C(Nc1ccccc1OC(F)(F)F)c1ccc([N+](=O)[O-])cc1 | 6.8 (≈ 20.8 µM) |
| CC(CC12CC3CC(CC(C3)C1)C2)NCc1ccccc1O.Cl (stereo unspecified) | 38.5 |
| O=C(Nc1ccc(F)cc1F)N1CCCCCC1 | > 38.1 |
| CCc1oc(C(=O)OC)cc1CSC(=N)N.Cl | 41.4 |

The next lines start with the values.

| solubility kinetic [µg/mL] | Structure (SMILES) |
| --- | --- |
| 39.4 (≈ 143 µM) | CC1CCC/C(=C\Nc2ccc(C(=O)O)c(O)c2)C1=O (stereo unspecified) |
| > 60.5 | COc1cc(S(=O)(=O)Nc2ccc3c(c2)C(=O)N(C)C3=O)ccc1NC(C)=O |
| 19.5 (≈ 63 µM) | Cc1ccc2c(c1)C(=O)C(=O)N2CC1COc2ccccc2O1 (stereo unspecified) |
| 8.7 (≈ 32.7 µM) | Cc1cccc(-n2cc(-c3ccccc3)[nH]c2=S)c1 |
| > 44.8 | CC1(C)SC[C@H](C(=O)Nc2cccc(Cl)c2)N1C=O |
| 11.5 (≈ 31.4 µM) | Cc1ccc(NS(=O)(=O)c2ccc3[nH]c(=O)c(=O)[nH]c3c2)cc1Cl |
| 2.7 (≈ 8.32 µM) | COc1ccc(NC(=O)c2cc3cc(C)ccc3n2C)c(OC)c1 |
| > 50.7 | O=C(COc1ccc(Cl)cc1)Nc1nnc(C2=COCCO2)o1 |
| > 58.1 | COc1ccccc1CCC(=O)OCC(=O)NCc1ccc(OC)c(OC)c1 |
| < 0.4 | COCCCn1c(=O)c2sccc2n(Cc2ccc(C)cc2)c1=O |
| 0.9 (≈ 2.4 µM) | COC(=O)c1ccc(NC(=O)c2cccc(NC(=O)c3ccccc3)c2)cc1 |
| 6.7 (≈ 21.7 µM) | COc1cccc(/C=C/C(=O)Nc2ccc3[nH]c(=O)[nH]c3c2)c1 |
| 1.7 (≈ 4.85 µM) | Cc1ccc(C(=O)C2CCN(CC(=O)Nc3ccccc3C)CC2)cc1 |
| > 48.4 | COc1ccc(NC(=O)c2cc(C)nc3ccccc23)c(OC)c1 |
| 29.6 (≈ 127 µM) | Cc1ccc(C(=O)N2CC(=O)NC(=O)C2)cc1 |
| 35.8 (≈ 115 µM) | O=C(/C=C/c1ccccc1F)N1CCN(c2ccccn2)CC1 |
| < 0.3 | Cc1ccc(CSc2nc3ccccc3c(=O)n2C)cc1 |
| 44.3 (≈ 130 µM) | COc1cc(OC)c(C(=O)NC2CCCc3ccccc32)cc1OC (stereo unspecified) |
| > 43.1 | CN(CC(=O)Nc1cccc(F)c1)C(=O)c1ccncc1 |
| 2.3 (≈ 7.13 µM) | Cc1ccc(S(=O)(=O)N2CCN(c3ccccc3)CC2)s1 |
| > 53.1 | O=C(NCCCNC(=O)c1c(F)cccc1F)c1c(F)cccc1F |
| > 38.2 | O=C(COc1ccccc1Cl)N1CCNC1=O |
| > 49.2 | CC1CC2c3cccc(C(=O)O)c3C(=O)N2c2ccc(Cl)cc21 (stereo unspecified) |
| > 58.7 | O=C(C1CCN(S(=O)(=O)c2c(Cl)cccc2Cl)CC1)N1CCCC1 |

| solubility kinetic [µg/mL] | Structure (SMILES) |
| --- | --- |
| 2.9 (≈ 10.1 µM) | COc1ccc2ccn(S(=O)(=O)c3ccccc3)c2c1 |
| 40.9 (≈ 140 µM) | Cc1sc(NC(=O)/C=C/c2ccco2)c(C(=O)O)c1C |
| > 47 | Cc1cc(NC(=O)C2CC(=O)N(c3cccc(C)c3C)C2)no1 (stereo unspecified) |
| 40.9 (≈ 125 µM) | O=C(COC(=O)c1c(F)cccc1Cl)NCC1CCCCC1 |
| 5.2 (≈ 17.5 µM) | NC(=O)c1cc(-c2csc(-c3cccnc3)n2)ccc1O |
| 33.4 (≈ 149 µM) | O=C(NC1=NCCS1)c1ccccc1F |
| > 45.4 | Cc1ccc2c(c1)N(CC(=O)N1CCCCC1)C(=O)C(C)O2 (stereo unspecified) |
| 38.4 (≈ 132 µM) | O=C(NC1CCCC1)C1CC(=O)N(c2ccc(F)cc2)C1 (stereo unspecified) |
| 2 (≈ 4.43 µM) | COc1ccc(CCNC(=O)CSc2nc3scc(-c4ccccc4)c3c(=O)[nH]2)cc1 |
| 4.5 (≈ 15 µM) | O=C(COC(=O)c1ccc2c(c1)OCO2)Nc1ccccc1 |
| < 0.3 | Cc1ccc(C(=O)NC(=S)NCc2ccccc2)cc1 |
| 7.5 (≈ 21.5 µM) | COc1cc2c(cc1OC)-c1cc(Nc3ccccc3)nc(=O)n1CC2 |
| > 51.4 | COc1cc(-n2c(C)nc3cc(C(=O)O)ccc32)cc(OC)c1OC |
| 4.1 (≈ 12.4 µM) | Cc1ccc(NC(=O)CCCNC(=O)c2ccc(Cl)cc2)nc1 |
| 22.2 (≈ 149 µM) | Nc1ccc2c(c1)COC2=O |
| > 45.2 | Cn1c(=O)c2c(nc(Oc3ccccc3N)n2C)n(C)c1=O |
| 22.2 (≈ 71.1 µM) | Cc1ccsc1CNC(=O)c1c(-c2ccccc2)noc1C |
| 38 (≈ 150 µM) | Cc1ccc(/C=C2/C(=O)ON=C2c2ccccc2)o1 |
| 43.6 (≈ 129 µM) | Cc1ccc(NC(=O)CC2NCCN(Cc3ccccc3)C2=O)cc1 (stereo unspecified) |
| 1.6 (≈ 5.33 µM) | O=C(OCc1ccccc1F)c1cnc(Cl)c(Cl)c1 |
| 14.7 (≈ 49 µM) | N#Cc1c(-c2ccc([N+](=O)[O-])cc2)nc2n(c1=O)CCS2 |
| 7.9 (≈ 24.4 µM) | COc1ccc(C(C)=O)cc1CC(=O)Nc1ccc2c(c1)CCC2 |
| > 50.8 | Cc1ccc(C(=O)N/C(=C\c2ccco2)C(=O)N2CCCCC2)cc1 |
